# Measured values from patent publication US10466253B2, “Molecular flux rates through critical pathways measured by stable isotope labeling in vivo, as biomarkers of drug action and disease activity” (The Regents of the University of California, priority 2004, dated 2019).
# Entries after “also recorded” stand apart in the source; their conditions may differ. Where two headings read alike, the source gives them in different places.
# B1: Interferon-gamma: anti-fibrotic agent (protein, UniProt P01579 24-161, looked up)
# Interferon gamma: QDPYVKEAENLKKYFNAGHSDVADNGTLFLGILKNWKEESDRKIMQSQIVSFYFKLFKNFKDDQSIQKSVETIKEDMNVKFFNSNKKKRDDFEKLTNYSVTDLNVQRKAIHELIQVMAELSPAAKTGKRKRSQMLFRG
# Tests used:
# [1] = system: hippocampal neuroprogenitor cells; experiment: Hippocampal neuroprogenitor cell proliferation (2H2O labeling of DNA, GC/MS); assay type: in vivo, male 129SvEv mice
# Procedure: FIG. 7 depicts the effects of chronic imipramine treatment on hippocampal neuroprogenitor cell proliferation in male 129SvEv mice. […] Mice received 3 weeks of treatment with imipramine (20 mg/kg/day) in drinking water and were labeled with 10% ^2H2O during the last 3 days of treatment. Data represent mean±SD, n=4 per group.
# FIG. 8 depicts the effects of chronic fluoxetine treatment on hippocampal neuroprogenitor cell proliferation in male 129SvEv mice. […] Mice received 2 weeks of treatment with fluoxetine (10 mg/kg/day) in drinking water and were labeled with 10% ^2H2O during the last week of treatment.
# DNA is then isolated from the tissue or cell of interest using a Qiagen kit (Qiagen, Valencia, Calif.), following the manufacturer's protocol. Isolated DNA, eluted in water, is adjusted to pH 9-10 and hydrolyzed enzymatically; deoxyribose is released selectively from purine (dA/dG) deoxynucleotides and converted to the pentane tetraacetate derivative. Alternatively, a pentafluorobenzyl derivative is prepared by reaction with excess pentafluorobenzyl hydroxylamine under acidic conditions, followed by acetylation with acetic anhydride. Either type of derivative is subsequently extracted with an organic solvent, dried with sodium sulfate, and analyzed by GC/MS as described, supra. […]
# bone marrow = experiment: Bone marrow proliferation in tumor-bearing mice over 5 days of chemotherapy; assay type: in vivo, female balb/C mice; details: Gem 125 mg/kg every other day, HU 500 mg/kg daily
# [2] = system: EMT7 mouse mammary carcinoma cells; experiment: In vivo tumor cell proliferation over 5 days of chemotherapy; set-up: species or system female balb/C mice; details: Gem 125 mg/kg every other day, HU 500 mg/kg daily
# [3] = system: endothelial cells from xenograft tumors; experiment: Tumor endothelial cell proliferation in xenograft tumors (angiogenesis); assay type: in vivo, Balb/c Nu-/Nu- mice; details: two weeks drug treatment; vs vehicle (saline)/untreated group
# Procedure: FIG. 18 depicts proliferation of endothelial cells from xenograft tumors in mice treated with an anti-angiogenic drug (Avastin) or a vehicle (saline). Endothelial cell proliferation is suppressed in animals treated with the drug.
# The kinetics of angiogenesis are measured in liver and tumor xenografts. Balb/c Nu−/Nu− mice are transplanted with human breast tumor cells. After labeling with ^2H2O, individual animals are sacrificed, and both tumor tissue and liver tissue are harvested from the same animal. The tissue is then digested with collagenase (1 mg/mL) into a single cell suspension. Endothelial cells are enriched by Percoll gradient centrifugation, followed by FACS (sorting on isolection and CD31 positive cells). The proliferation rate of tumor endothelial cells, as well as liver endothelial cells is then measured by purifying, processing, derivatizing, and analyzing the DNA from the isolated endothelial cells, as described in example 2, supra.
# mature neurons = experiment: Proliferation of mature neurons (neurogenesis; flow cytometry isolated neurons); assay type: in vivo; details: imipramine-treated vs normal adult mice
# Source text: FIG. 27 depicts the proliferation of mature neurons in normal and antidepressant (imipramine)-treated adult mice. Neurons were isolated by flow cytometry and analyzed as described in Example 2, infra.
# Animals are sacrificed, brain is removed and the hippocampus is dissected out. […] Different durations of label administration can be used to differentiate between the kinetics of rapidly proliferating cells, such as the progenitor cell population, compared to the slower rate of label incorporation in neuronal cells. In order to assess neurogenesis directly, ^2H2O-labeled […] are sacrificed, the brain is removed, the hippocampus is dissected out and cut into 0.5 mm slices followed by digestion/dissociation with papain and trypsin. The isolated cells are stained for neuronal markers and sorted by flow cytometry. DNA is isolated and labeling is measured as described, supra.
# liver cells = experiment: Liver cell proliferation under carbon tetrachloride treatment (2H2O labeling); assay type: in vivo, Swiss Webster mice; details: IP injections over 7 days, increasing doses, concurrent 2H2O
# Procedure: FIG. 13 depicts in vivo dose response of liver cell proliferation over 7 days of carbon tetrachloride treatment. Swiss Webster mice were given IP injections of CCl4 over 7 days concurrent with ^2H2O.
# Mice are given CCl4 i.p. twice weekly for up to 4 weeks, and continuous oral ^2H2O is given throughout, following an i.p. bolus of ^2H2O. Livers are perfused in situ with saline to minimize blood cell contamination. Livers are homogenized and DNA from 5-mg aliquots is analyzed for ^2H incorporation by gas chromatography/mass spectrometry analysis, after isolation and hydrolysis of genomic DNA, as described in Example 1, supra. Livers are collected 4 days after the last dose of CCl4. The cell proliferation rate can then be calculated from the enrichment in the DNA of the target cell compared to measured body water enrichment or to a reference cell type which is fully replaced.
# DNA is extracted from a liver sample, either by biopsy or liver homogenate. Liver cell proliferation can be determined on a sample a small as 2 mg (400,000 cells). The use of total liver, rather than isolated hepatocytes, allows for efficient scale-up and the sample processing can be adapted to a 96-well automated system for extremely high throughput. Total liver cell proliferation will be compared to the measured proliferation of isolated hepatocytes, and non-parenchymal cells for validation. […]
# liver collagen synthesis = experiment: Liver collagen synthesis in CCl4-induced liver fibrosis; details: for rate of liver collagen synthesis in CCl4-treated mice: CCl4-induced liver fibrosis
# [4] = Tolerability of maintained 2H2O body water enrichment; assay type: in vivo, humans and experimental animals; details: 1-10% of total body water labeled, weeks or months; >100 human subjects
# Source text: Relatively high body water enrichments of ^2H2O (e.g., 1-10% of the total body water is labeled) may be achieved relatively inexpensively using the techniques of the invention. […] This finding in a large number of human subjects (>100 people) is contrary to previous concerns about vestibular toxicities at high doses of ^2H2O. The Applicant has discovered that as long as rapid changes in body water enrichment are prevented (e.g., by initial administration in small, divided doses), high body water enrichments of ^2H2O can be maintained with no toxicities. For example, the low expense of commercially available ^2H2O allows long-term maintenance of enrichments in the 1-5% range at relatively low expense (e.g., calculations reveal a lower cost for 2 months labeling at 2% ^2H2O enrichment, and thus 7-8% enrichment in the alanine precursor pool, than for 12 hours labeling of ^2H-leucine at 10% free leucine enrichment, and thus 7-8% enrichment in leucine precursor pool for that period).
# [5] = system: bone marrow cells (total, lymphoid, myeloid, other); experiment: Bone marrow cell subset proliferation after hydroxyurea (myelosuppression)
# SW 1753 cells = experiment: DNA methylation in cultured tumor cells (2H3-methyl methionine labeling, GC-MS of methylcytosine); assay type: cell-based; details: for inhibition at 0.25 µM: read-out: inhibition of methylation (reduction)
# microglia = experiment: Microglial proliferation assay of neuroinflammation (2H2O labeling, FACS-isolated microglia); assay type: in vivo, mice; details: LPS i.p. (1 and 4 mg/kg every other day in FIG. 14); vs control; p<0.05 / p<0.01 ANOVA/Tukey
# Procedure: FIG. 14 depicts microglial response to the neuroinflammatory toxin lipopolysacharride (LPS). LPS is administered every other day to mice intraperitoneally at the two doses indicated (1 and 4 mg/kg body weight). ^2H2O was administered concurrently. Some animals were harvested at each of the indicated time points, and microglia were isolated and analyzed for deuterium incorporation. […] Error bars indicate standard deviation.
# FIG. 15 depicts the effects of two anti-inflammatory chemotherapeutic agents (dexamethasone and minocycline) on microglial proliferation. Mice were given ^2H2O and either intraperitoneal lipopolysaccharide (LPS) to induce neuroinflammation, or a vehicle (control). Mice given LPS were treated with either a vehicle or dexamethasone or minocycline. Microglia were then isolated and analyzed for deuterium incorporation as described herein.
# Mice are labeled with ^2H2O for an appropriate period. Mice are anesthetized and perfused with 10 mL ice cold PBS (trans-cardiac perfusion). Brains are immediately harvested and placed on ice in cold PBS. […]
# The resulting cells are stained with the macrophage specific markers F4/80 and CD11b, fixed in 4% paraformaldehyde (PFA), and then isolated by FACS. […] DNA is extracted from sorted cells, hydrolyzed, derivatized, and analyzed by GC/MS as described in Example 2, supra. […]
# cerebral cortical tissue = experiment: Cerebral cortical tissue/cell turnover (2H2O labeling of cortical DNA); details: high dose of LPS
# [6] = single dose 500 mg/kg i.p., 8% 2H2O for subsequent 24 hours, vs vehicle
molecule,measurement,setting,value
CNCCC(Oc1ccc(C(F)(F)F)cc1)c1ccccc1 (stereo not shown) [fluoxetine],hippocampal neuroprogenitor cell proliferation,"[1]; fluoxetine 10 mg/kg/day in drinking water, 2 weeks, 10% 2H2O during last week, p<0.05 vs vehicle",increases progenitor cell proliferation; also recorded: significant increase
"Nc1ccn([C@@H]2O[C@H](CO)[C@@H](O)C2(F)F)c(=O)n1 [Gem, gemcitabine]",bone marrow proliferation,bone marrow,suppressed
same,tumor cell proliferation,[2],suppressed
same,tumor cell proliferation,[2]; listed as gemcitabine,reduced
"Avastin: Avastin (Genentech, CA), a known anti-angiogenesis drug",tumor endothelial cell proliferation rate,[3],suppressed; also recorded: significantly lower proliferation rate
CN(C)CCCN1c2ccccc2CCc2ccccc21 [imipramine],hippocampal neuroprogenitor cell proliferation,"[1]; imipramine 20 mg/kg/day in drinking water, 3 weeks, 10% 2H2O during last 3 days, vs vehicle",increases progenitor cell proliferation; also recorded: significant increase
same,rate of mature neuron formation,mature neurons,increased formation of mature neurons
same,rate of mature neuron formation,mature neurons; listed as Imipramine,increased the rate of mature neuron formation
"ClC(Cl)(Cl)Cl [CCl4, carbon tetrachloride]",total liver cell turnover (proliferation of liver cells),liver cells,increased proliferation of liver cells
same,collagen synthesis in mouse liver,liver collagen synthesis; fibrotic agent alone,increases collagen synthesis
[2H]O[2H] [^2H2O],toxicity of maintained body water enrichment,[4],without any evidence of toxicity
NC(=O)NO [hydroxyurea],bone marrow proliferation,bone marrow,suppressed
same,"bone marrow proliferation across subsets (TBM, lymphoid, myeloid, other)",[5]; in three cases (indicated by **),suppressed bone marrow proliferation
same,proliferation of lymphoid bone marrow cells,[5]; [6],statistically significant suppressive effect
same,proliferation of other bone marrow cells,[5]; [6],statistically significant suppressive effect
same,proliferation of total bone marrow (TBM),[5]; [6],statistically significant suppressive effect
same,tumor cell proliferation,[2],reduced
same,tumor cell proliferation,[2]; listed as HU,suppressed
"Nc1ncn([C@H]2C[C@H](O)[C@@H](CO)O2)c(=O)n1 [Decitabine, decitabine]",inhibition at 0.25 µM,SW 1753 cells,70%
lipopolysaccharide [LPS],microglial proliferation,microglia,increased proliferative response; also recorded: increased proliferation; also recorded: statistically significant and dose-dependent increase
same,cortical tissue turnover,cerebral cortical tissue,affected cortical tissue turnover; also recorded: increased cortical cell turnover
"Nc1ncn([C@@H]2O[C@H](CO)[C@@H](O)[C@H]2O)c(=O)n1 [azacytidine, azacitidine]",inhibition at 0.25 µM,"SW 1753 cells; 250 nM, SW 1753 cells, DMEM 10% FBS with 2H3-methyl methionine",< 10%
same,fraction of methylcytosine that is new,"SW 1753 cells; 24-hour labeling period, 125, 250, 500 nM",suppressed
B1,rate of liver collagen synthesis in CCl4-treated mice,liver collagen synthesis,reduce the rate of collagen synthesis
same,rate of liver collagen synthesis in CCl4-treated mice,liver collagen synthesis; listed as interferon-gamma,suppressed
